We go through three compounds from patent US20120121591A1 (priority 2009, published 2012).

Positions of bridges follow the written chain, without caps; N, C: chain ends. Residues, ends and D or L forms follow the SMILES beside them.

Common to all, as to format: cell-based
For one assay, the target named is hKv1.3 (Homo sapiens, UniProt P22001). Kind of assay: cell-based. As to conditions: Kv1.3 (IWQ) IC50 (nM, Avg).
The test system of assay [1] is IL-2 secretion from T cells in human whole blood. To be noted: read-out: WB (IL-2) IC50 (nM, Avg).
Assay [2] has as its system IFN-g secretion from T cells in human whole blood. To be noted: read-out: WB (IFNg) IC50 (nM, Avg).

Chain of hKv1.3 (P22001 whole entry): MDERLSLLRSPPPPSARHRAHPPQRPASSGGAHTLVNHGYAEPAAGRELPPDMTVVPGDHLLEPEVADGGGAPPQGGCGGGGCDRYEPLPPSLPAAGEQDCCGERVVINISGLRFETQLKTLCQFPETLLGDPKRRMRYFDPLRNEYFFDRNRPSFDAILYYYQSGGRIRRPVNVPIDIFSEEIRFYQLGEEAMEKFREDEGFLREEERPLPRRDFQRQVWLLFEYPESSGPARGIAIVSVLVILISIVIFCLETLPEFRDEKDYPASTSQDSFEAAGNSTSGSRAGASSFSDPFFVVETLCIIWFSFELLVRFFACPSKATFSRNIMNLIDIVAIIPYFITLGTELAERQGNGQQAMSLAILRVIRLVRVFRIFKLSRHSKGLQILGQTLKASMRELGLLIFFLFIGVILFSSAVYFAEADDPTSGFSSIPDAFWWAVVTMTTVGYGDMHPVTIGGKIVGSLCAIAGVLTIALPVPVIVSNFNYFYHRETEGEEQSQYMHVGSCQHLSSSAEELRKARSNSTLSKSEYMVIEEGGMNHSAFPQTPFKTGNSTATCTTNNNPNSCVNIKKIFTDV

Consider `CC[C@H](C)[C@@H]1NC(=O)[C@H](CC(=O)O)NC(=O)[C@H]([C@@H](C)O)NC(=O)[C@@H]2CSSC[C@@H]3NC(=O)[C@H](CC(C)C)NC(=O)[C@H](CC(N)=O)NC(=O)[C@H](CC(C)C)NC(=O)[C@H](CCCNC(=N)N)NC(=O)[C@H](Cc4ccc(O)cc4)NC(=O)[C@H](CCCCN)NC(=O)[C@H](CCSC)NC(=O)[C@H](CO)NC(=O)[C@H]([C@@H](C)O)NC(=O)[C@H](CCCNC(=N)N)NC(=O)[C@H](CSSC[C@H](NC(=O)[C@H]([C@@H](C)O)NC(=O)[C@H](CCCCN)NC(=O)[C@H](CCCNC(=N)N)NC3=O)C(=O)NCC(=O)N[C@@H](CO)C(=O)N[C@H](C(=O)O)CSSC[C@H](NC(=O)[C@@H](NC(=O)[C@@H](N)CCCNC(=N)N)[C@@H](C)O)C(=O)N[C@@H](CCCCN)C(=O)N[C@@H](CC(=O)O)C(=O)N[C@@H](CC(C)C)C(=O)N[C@@H]([C@@H](C)CC)C(=O)N3CCC[C@H]3C(=O)N[C@@H](C(C)C)C(=O)N[C@@H](CO)C(=O)N[C@@H](CCC(=O)O)C(=O)N2)NC(=O)[C@H](CCCNC(=N)N)NC1=O` [HmK, reference compound] (H-RTCKDLIPVSECTDIRCRTSMKYRLNLCRKTCGSC-OH; disulfide 3-35, 12-28, 17-32), for which the IC50 at hKv1.3 was found to be 0.9 nM; in assay [1], 0.85 nM; in assay [2], 1.2 nM.
As to `CC[C@H](C)[C@@H]1NC(=O)[C@@H](NC(=O)[C@H](CO)NC(=O)[C@@H](N)CCCNC(=N)N)CSSC[C@@H](C(=O)O)NC(=O)[C@H]([C@@H](C)O)NC(=O)CNC(=O)[C@@H]2CSSC[C@@H]3NC(=O)[C@H](CCC(N)=O)NC(=O)[C@H](Cc4ccccc4)NC(=O)[C@H](C)NC(=O)[C@H]([C@@H](C)O)NC(=O)[C@H](CSSC[C@H](NC(=O)[C@H](Cc4ccccc4)NC(=O)[C@H](CO)NC(=O)[C@H](CC(C)C)NC(=O)[C@H](CCCNC(=N)N)NC(=O)[C@H](C)NC(=O)[C@H](CCCCN)NC(=O)[C@H](CCSC)NC(=O)[C@H](CO)NC(=O)[C@H](Cc4c[nH]cn4)NC(=O)[C@H](CCCCN)NC3=O)C(=O)N[C@@H](CCCNC(=N)N)C(=O)N[C@@H](CCCCN)C(=O)N[C@@H]([C@@H](C)O)C(=O)N2)NC(=O)[C@H](CCCNC(=N)N)NC(=O)[C@H](CO)NC(=O)[C@H](CCCCN)NC(=O)[C@@H]2CCCN2C(=O)[C@H]([C@@H](C)CC)NC(=O)[C@H]([C@@H](C)O)NC(=O)[C@H](CC(=O)O)NC1=O` [Tyr23(A)], the IC50 on hKv1.3 was 0.621 nM; in assay [1] it was 3.75 nM; in assay [2] it was 5.44 nM.
Turning to `CC[C@H](C)[C@@H]1NC(=O)[C@@H](NC(=O)[C@H](CO)NC(=O)[C@@H](N)Cc2cccc3ccccc23)CSSC[C@@H](C(=O)O)NC(=O)[C@H]([C@@H](C)O)NC(=O)CNC(=O)[C@@H]2CSSC[C@@H]3NC(=O)[C@H](CCC(N)=O)NC(=O)[C@H](Cc4ccccc4)NC(=O)[C@H](C)NC(=O)[C@H]([C@@H](C)O)NC(=O)[C@H](CSSC[C@H](NC(=O)[C@H](Cc4ccccc4)NC(=O)[C@H](CO)NC(=O)[C@H](CC(C)C)NC(=O)[C@H](CCCNC(=N)N)NC(=O)[C@H](Cc4ccc(O)cc4)NC(=O)[C@H](CCCCN)NC(=O)[C@H](CCSC)NC(=O)[C@H](CO)NC(=O)[C@H](Cc4c[nH]cn4)NC(=O)[C@H](CCCCN)NC3=O)C(=O)N[C@@H](CCCNC(=N)N)C(=O)N[C@@H](CCCCN)C(=O)N[C@@H]([C@@H](C)O)C(=O)N2)NC(=O)[C@H](CCCNC(=N)N)NC(=O)[C@H](CO)NC(=O)[C@H](CCCCN)NC(=O)[C@@H]2CCCN2C(=O)[C@H]([C@@H](C)CC)NC(=O)[C@H]([C@@H](C)O)NC(=O)[C@H](CC(=O)O)NC1=O` [[1-Nal1]ShK], the figures for the IC50 (against hKv1.3; in assay [1]; in assay [2]) were 0.225 nM, 0.222 nM and 0.247 nM, respectively.
